Data: paper PMC8834506, “Optimization of Thymidine Kinase-Based Safety Switch for Neural Cell Therapy” (Cells, 2022)
Like-named read-outs stand apart in the source and are kept apart here.

Tests used:
[1] = system: ReNcells Ki67-SR39h (proliferating); assay: ATP-based assay, EC50 and kinetics of cell death in proliferating neural progenitors; parameters: species or system human; details: for EC50: Homo sapiens, 96 h GCV exposure
Method: We then compared the ability of GCV to kill proliferating NPC that expressed the SR39h thymidine kinase under the control of the ubiquitin (ReNcells Ubi-SR39h) or the Ki67 promoter. (ReNcells Ki67-SR39h) (Figure 4). For this purpose, we first performed a dose response to GCV on undifferentiated NPC. […] We then explored the kinetic of cell death with the suicide enzyme driven either by Ki67 or ubiquitin promoter for different concentrations of GCV. The rapidity of cell death induction but not its final extent was a function of the GCV concentrations. […] This was true for a short-term treatment at 24 h and 48 h, but not at the later time points at 72 h and 96 h (Figure 4D).
Figure 4 EC50 and kinetics of GCV-induced cell death in proliferating and post-mitotic ReNcells. SR39h was expressed in ReNcells (immortalized neural precursor cells that can be differentiated to post-mitotic neurons) under the control of the two different promoters: Ki67 or ubiquitin. Wild type ReNcells were used as control. […] (B–D) Kinetics of cell death of SR39-expressing ReNcells cells either under the control of cycle promoter Ki67 or ubiquitin promoter with increasing GCV concentrations of 1, 10, and 100 µM. Cell viability was measured every 24 h using a bioluminescent ATP-based assay (n = 3). (E) ReNcells were differentiated toward post-mitotic neurons for 21 days then treated with GCV for 10 days. Cell viability was measured using an ATP-based assay. Results are mean + SD of three independent experiments performed in triplicates. (F) Immunostaining, Hoechst in blue and Beta III tubulin (βIII tub) in green, ReNcells were differentiated toward neurons for 21 days, then treated with 10 µM of GCV during 10 days. TEXT PRINTED IN THE PICTURE: (A) GCV: ReNcell wt: 1.2 x 10^-5; ReNcell Ki67-SR39h: 2.1 x 10^-9; ReNcell Ki67-SR39h: 2.1 x 10^-9 DOUBTS OF THE COPYIST ABOUT THIS PICTURE: Panel A table: the picture prints no measure or unit for the three values. The only printed substance label is the axis title 'GCV in M', and the table rows are cell lines, so they are written as targets of the values.
Cell culture plate (96 wells plate Corning #3907, Corning, Lonay, Switzerland) were pre-coated with 60 μL per well of Poly-L-ornithine solution (Sigma, Merk, Eysins, Switzerland) at 37 °C for 30 min. […] For EC50 assays, the medium was changed daily for 4 days, then cell viability was assessed using an ATP-based assay. EC50 values for each construct were calculated using a four parameters equation (GraphPad, Prism8, San Diego, CA, USA). […] Luminescence was measured using Spectra L384/L96 (0.2 sec exposure, Molecular devices, Biberach an der Riß, Germany).

[2] = 10 mg/kg/day; cited from earlier work

Nc1nc(O)c2ncn(COC(CO)CO)c2n1 [GCV, ganciclovir]
Cell death induction kinetics, Ki67-SR39h compared to Ubi-SR39h ([1]; 1 μM and 10 μM GCV, measured every 24 h): no significant differences | Cell death induction kinetics, Ki67-SR39h compared to Ubi-SR39h ([1]; 100 μM GCV, at 24 h and 48 h, not at 72 h and 96 h): slightly slower dynamic of cell death | EC50 ([1]; 24-point dose response, n = 3, read-out: EC50 of GCV, ReNcell Ki67-SR39h): 2.1 nM | EC50 ([1]; undifferentiated NPC, read-out: EC50 of GCV): ~2.1 nM | Side effects at the maximal recommended doses [2]: considerable side effects
